Earlier results in US20160324796A1, “COMPOSITIONS AND THEIR USE TO TREAT COMPLICATIONS OF ANEURYSMAL SUBARACHNOID HEMMORRHAGE” (Edge Therapeutics, Inc., priority 2007, published 2016).
Read-outs that look alike come from different tables or passages of the source. Ends that are not written are not given here.

Experiments:
patients with SAH [1] = conditions: cited from earlier work; for patients with primary end point: placebo 27%; for patients with poor outcome (extended Glasgow Outcome Scale score </=4): placebo 24%
patients with SAH [2] = conditions: cited from earlier work
R-type calcium current = conditions: cited from earlier work
[3] = test system: K+ and Na+ currents, and L, P/Q and T-type calcium currents; conditions: cited from earlier work
N-type calcium current = N-type calcium current (Homo sapiens, UniProt Q00975); conditions: at 300 nM to 500 nM; cited from earlier work
Sequence of N-type calcium current (Q00975 whole entry): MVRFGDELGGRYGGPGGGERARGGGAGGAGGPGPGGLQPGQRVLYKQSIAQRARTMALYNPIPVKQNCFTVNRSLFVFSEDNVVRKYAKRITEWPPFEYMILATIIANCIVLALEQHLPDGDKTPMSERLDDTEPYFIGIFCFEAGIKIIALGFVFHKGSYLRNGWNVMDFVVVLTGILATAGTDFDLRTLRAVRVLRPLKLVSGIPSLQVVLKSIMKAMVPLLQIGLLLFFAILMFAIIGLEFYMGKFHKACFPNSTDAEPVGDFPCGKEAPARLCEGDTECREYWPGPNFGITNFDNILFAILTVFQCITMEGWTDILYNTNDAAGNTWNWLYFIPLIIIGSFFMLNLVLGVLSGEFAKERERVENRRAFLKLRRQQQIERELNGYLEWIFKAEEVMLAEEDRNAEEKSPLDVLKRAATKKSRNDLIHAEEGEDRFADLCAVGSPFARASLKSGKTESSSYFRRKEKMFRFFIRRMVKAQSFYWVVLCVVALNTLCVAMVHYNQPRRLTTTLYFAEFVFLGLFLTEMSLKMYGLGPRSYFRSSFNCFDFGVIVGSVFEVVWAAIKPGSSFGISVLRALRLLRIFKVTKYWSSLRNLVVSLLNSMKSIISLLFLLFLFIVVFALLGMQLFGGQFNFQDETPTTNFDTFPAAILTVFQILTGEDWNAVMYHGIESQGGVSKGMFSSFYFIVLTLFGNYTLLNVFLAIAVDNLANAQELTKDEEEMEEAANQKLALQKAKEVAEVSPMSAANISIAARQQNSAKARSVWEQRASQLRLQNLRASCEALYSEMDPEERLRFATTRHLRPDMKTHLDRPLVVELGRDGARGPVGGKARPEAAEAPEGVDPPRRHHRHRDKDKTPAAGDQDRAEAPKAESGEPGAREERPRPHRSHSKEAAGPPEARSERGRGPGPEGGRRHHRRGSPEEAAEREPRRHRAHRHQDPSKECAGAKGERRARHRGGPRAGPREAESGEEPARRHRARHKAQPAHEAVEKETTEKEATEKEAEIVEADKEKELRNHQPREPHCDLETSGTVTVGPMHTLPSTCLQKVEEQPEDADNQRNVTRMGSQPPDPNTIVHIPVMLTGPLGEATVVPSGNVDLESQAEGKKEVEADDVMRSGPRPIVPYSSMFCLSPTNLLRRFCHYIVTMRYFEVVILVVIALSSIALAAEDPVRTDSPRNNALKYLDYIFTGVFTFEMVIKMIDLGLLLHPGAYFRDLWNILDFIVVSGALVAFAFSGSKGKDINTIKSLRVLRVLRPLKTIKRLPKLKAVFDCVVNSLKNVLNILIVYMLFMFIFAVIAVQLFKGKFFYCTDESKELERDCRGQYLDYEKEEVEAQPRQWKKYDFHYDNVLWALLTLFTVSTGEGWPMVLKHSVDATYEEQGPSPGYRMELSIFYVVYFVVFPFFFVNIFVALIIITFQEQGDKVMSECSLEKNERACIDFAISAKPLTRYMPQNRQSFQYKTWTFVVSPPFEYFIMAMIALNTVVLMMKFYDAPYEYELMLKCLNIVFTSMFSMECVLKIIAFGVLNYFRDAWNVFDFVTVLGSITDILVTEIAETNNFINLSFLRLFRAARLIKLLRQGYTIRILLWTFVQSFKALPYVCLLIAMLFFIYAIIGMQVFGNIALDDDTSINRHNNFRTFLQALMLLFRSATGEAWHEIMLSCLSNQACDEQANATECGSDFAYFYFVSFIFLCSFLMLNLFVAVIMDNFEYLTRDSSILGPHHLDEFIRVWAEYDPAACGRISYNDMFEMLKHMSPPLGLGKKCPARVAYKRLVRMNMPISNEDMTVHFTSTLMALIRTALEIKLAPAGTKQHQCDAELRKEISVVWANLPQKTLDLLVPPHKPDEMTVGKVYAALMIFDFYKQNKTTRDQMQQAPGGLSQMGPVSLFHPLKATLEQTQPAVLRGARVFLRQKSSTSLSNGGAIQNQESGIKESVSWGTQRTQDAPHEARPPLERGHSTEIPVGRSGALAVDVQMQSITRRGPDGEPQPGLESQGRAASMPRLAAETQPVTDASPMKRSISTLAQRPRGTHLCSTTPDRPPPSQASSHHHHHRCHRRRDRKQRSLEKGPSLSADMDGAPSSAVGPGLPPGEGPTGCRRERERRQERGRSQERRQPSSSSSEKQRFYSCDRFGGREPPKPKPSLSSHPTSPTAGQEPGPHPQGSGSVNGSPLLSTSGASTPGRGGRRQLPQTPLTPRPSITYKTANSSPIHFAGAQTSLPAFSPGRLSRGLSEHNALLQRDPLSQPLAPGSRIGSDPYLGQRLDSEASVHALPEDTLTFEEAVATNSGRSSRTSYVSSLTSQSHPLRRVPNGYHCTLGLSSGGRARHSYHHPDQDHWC

Row | Compound | odds ratio, primary end point (patients with SAH [1]; 5 mg/h versus placebo, 95% CI 0.479-1.289, P=0.340) | odds ratio, poor outcome (patients with SAH [1]; 5 mg/h versus placebo, 95% CI 0.546-1.544, P=0.748) | patients with primary end point (patients with SAH [1]; 5 mg/h, 47/194) [%] | patients with poor outcome (extended Glasgow Outcome Scale score </=4) (patients with SAH [1]; 5 mg/h) [%] | odds ratio, primary end point (patients with SAH [1]; 15 mg/h versus placebo, 95% CI 0.275-0.818, P=0.007) | odds ratio, poor outcome (patients with SAH [1]; 15 mg/h versus placebo, 95% CI 0.802-2.227, P=0.266) | patients with primary end point (patients with SAH [1]; 15 mg/h, 28/188) [%] | patients with poor outcome (extended Glasgow Outcome Scale score </=4) (patients with SAH [1]; 15 mg/h) [%] | patients meeting primary composite endpoint (week 6) (patients with SAH [2]; 5 mg/h up to 14 days, 161 of 764 patients, placebo 25%) [%] | relative risk reduction, primary composite endpoint (patients with SAH [2]; 5 mg/h versus placebo, 95% CI -4 to 33, p=0.10) [%] | relative risk reduction, poor functional outcome (patients with SAH [2]; 5 mg/h versus placebo, −45 to 4, p=0.10) [%] | patients with poor functional outcome (GOSE score </=4) (patients with SAH [2]; 5 mg/h, placebo 25%) [%] | Mortality (week 12) (patients with SAH [2]; 5 mg/h, same in placebo) [%] | block of R-type calcium current (R-type calcium current; neurohypophysial nerve endings, 40 nM) | effect on R-type current (R-type calcium current; preparations of the neuronal cell body, retinal ganglion cells and hippocampal pyramidal cells) | effect on K+ and Na+ currents, and L, P/Q and T-type calcium currents [3] | block of N-type calcium current (N-type calcium current)
1 | COc1ccccc1Oc1c(NS(=O)(=O)c2ccc(C)cn2)nc(-c2ccnc(-c3nnn[nH]3)c2)nc1OCCO [clazosentan] | 0.786 | 0.918 | 24 | 25 | 0.474 | 1.337 | 15 | 28 | 21 | 17 | −18 | 29 | 6 | – | – | – | –
2 | SNX-482: toxin from the tarantula Hysterocrates gigas, a 41 amino acid residue peptide with 3 disulfide linkages; putative R-type selective blocker (GVDKAGCRYMFGGCSVNDDCCPRLGCHSLFSYCAWDLTFSD; disulfide (positions not given here); UniProt P56854 1-41, looked up) | – | – | – | – | – | – | – | – | – | – | – | – | – | blocks | no significant effect | no effect | 30-50%
